Results reported in patent US11548883B2, “Compounds as autotaxin inhibitors and pharmaceutical compositions comprising the same” (LegoChem Biosciences, Inc., priority 2017, dated 2023).

Experiments:
Format in all cases: biochemical
[1] = tested on: LPA production in blood serum; experiment: Inhibitory activity on LPA production in mouse blood serum; details: mouse blood serum (m), 18:1 LPC added
[2] = tested on: LPA production in blood serum; experiment: Inhibitory activity on LPA production in human blood serum; details: human blood serum (h), 18:1 LPC added
[3] = biological target: human ENPP2 (Homo sapiens (Human), UniProt Q13822); experiment: Inhibitory activity on human ENPP2 (FS-3 assay); details: human ENPP2, FS-3 substrate, Table 2
Experimental: Two-fold dilution of each test compound solution (10 μM, 100% dimethyl sulfoxide) is carried out on 96-well V bottom plate (Costar 3363). After ten-fold dilution of each the test compound solution (100% dimethyl sulfoxide) with deionized distilled water, 10 μL of the diluted each compound solution (10% dimethyl sulfoxide) was aliquoted to a black flat bottom 96-well plate (Costar 3915).

Row | SMILES | IC50 [1] [nM] | IC50 [2] [nM] | IC50 [3] [nM]
1 | O=C(Cn1cc(-c2cnc(NC3Cc4ccccc4C3)nc2)c(OCc2ccccc2)n1)N1CCc2[nH]nnc2C1 [Compound 63, 2-[3-(benzyloxy)-4-{2-[(2,3-dihydro-1H-inden-2-yl)amino]pyrimidin-5-yl}-1H-pyrazol-1-yl]-1-{1H,4H,5H,6H,7H-[1,2,3]triazolo[4,5-c]pyridin-5-yl}ethan-1-one] | 12 | 10 | –
2 | CCc1nn(CC(=O)N2CCc3[nH]nnc3C2)cc1-c1cnc(NC2Cc3ccccc3C2)nc1 [Compound 79, 2-(4-{2-[(2,3-dihydro-1H-inden-2-yl)amino]pyrimidin-5-yl}-3-ethyl-1H-pyrazol-1-yl)-1-{1H,4H,5H,6H,7H-[1,2,3]triazolo[4,5-c]pyridin-5-yl}ethan-1-one] | – | 5 | 1.6
3 | O=C1CN(Cc2nn(CC(=O)N3CCc4[nH]nnc4C3)cc2-c2cnc(NC3Cc4ccccc4C3)nc2)CCN1 [Compound 82, 4-[(4-{2-[(2,3-dihydro-1H-inden-2-yl)amino]pyrimidin-5-yl}-1-(2-oxo-2-{1H,4H,5H,6H,7H-[1,2,3]triazolo[4,5-c]pyridin-5-yl}ethyl)-1H-pyrazol-3-yl)methyl]piperazin-2-one] | 8 | – | < 1.56
4 | O=C(Cn1cc(-c2cnc(NC3Cc4ccccc4C3)nc2)c(O)n1)N1CCc2[nH]nnc2C1 [Compound 65, 2-(4-{2-[(2,3-dihydro-1H-inden-2-yl)amino]pyrimidin-5-yl}-3-hydroxy-1H-pyrazol-1-yl)-1-{1H,4H,5H,6H,7H-[1,2,3]triazolo[4,5-c]pyridin-5-yl}ethan-1-one] | 30 | – | < 1.56
